Measured values as given in US9309336B2, “Synthesis and antiscalant behavior of a novel polyzwitterionic acid” (King Fahd University of Petroleum and Minerals, priority 2013, dated 2016).
Values joined by “and” are separate entries in the source; they are usually repeats but may differ in a detail not shown here. Equal entries are not always repeated.

Tests used:
[1] = Solubility of monomer 4 (observation at isolation); format: physicochemical
Method: Synthesis of 3-[Diallyl{3-(diethoxyphosphoryl)propyl}ammonio]propane-1-sulfonate (4) preferably occurs by the following method: under N2 at 70° C., a solution of diethyl 3-(diallylamino)propylphosphonate 2 (15.0 g, 54.5 mmol) and 3 (7.0 g, 57.3 mmol) in CH3CN (30 cm^3) was stirred for 60 h. The residue, after removal of acetonitrile, was crystallized from acetone (30 cm^3) in the presence of small amount of methanol to give white crystals of 4 (19.5 g, 90%). The extremely hygroscopic monomer is insoluble in acetone but soluble in methanol or water. Mp 140-142° C. (closed capillary); (Found: C, 47.9; H, 8.4; N, 3.4; S, 7.8%. C16H32NO6PS requires C, 48.35; H, 8.11; N, 3.52; S, 8.07%); νmax (KBr): 3402, 2985, 2940, 1644, 1479, 1428, 1394, 1213, 1042, 967, 875, 786, 733 and 605 cm^−1; δH (D2O) 1.22 (6H, t, J=7 Hz), 1.86 (2H, m), 1.96 (2H, m), 2.11 (2H, m), 2.84 (2H, t, J=7.5 Hz), 3.23 (2H, apparent t, J=10 Hz), 3.31 (2H, apparent t, J=10 Hz), 3.85 (4H, d, J=7 Hz), 4.04 (4H, m), 5.64 (4H, m), 5.89 (2H, m), (HOD: 4.65); δC (D2O) 15.83 (s, PCH2CH2), 16.47 (d, 2C, Me, ^3J (PC) 4.1 Hz), 18.29 (s, SCH2CH2), 21.45 (d, PCH2, ^1J (PC) 143 Hz), 47.97 (s, SCH2CH2CH2), 57.26 (s, SCH2CH2CH2), 58.32 (d, PCH2CH2CH2, ^3J (PC) 16.4 Hz), 61.72 (2C, ═CH—CH2, s), 64.38 (d, 2C, OCH2CH3, ^2J (PC) 6.2 Hz), 124.40 (2C, s, CH2=CH), 129.80 (2C, s, CH2═CH) (dioxane: 67.40 ppm); δP (202 MHz, D2O): 31.01 (s). DEPT 135 NMR analysis was carried out to assign the ^13C signals.

[2] = Potentiometric titration for protonation (basicity) constants; format: physicochemical; conditions: 23° C.; for Log K1^o (first protonation), Average / Log K2^o (second protonation), Average / n1 (first protonation), Average / n2 (second protonation), Average: average of runs 1-3, SD in last digit in parentheses
Method: Protonation constants (K1 and K2) of polymer 8 [ZH2^±=] and its corresponding monomer unit 11 [ZH2^±=] were determined by potentiometric titrations which were carried out in atmosphere of N2 in CO2-free water as described elsewhere using a solution (Tables 3 and 4) of PZDA 6 [ZH2^±] or monomer form 11 [ZH2^±=] in 200 cm^3 of salt-free water or 0.1 N NaCl (S. A. Ali, et al., J. Polym. Sc. A: Polym. Chem. 2010, 48, 5693-5703—incorporated herein by reference in its entirety). The Log K1 and Log K2 of the —P(═O)O^= (in 8 or 11) are calculated at each pH value by the Henderson-Hasselbalch eq 2 (Scheme 1) where a is the ratio [ZH^±−]eq/[Z]o and [ZH2^±]eq/[Z]o, respectively. The [ZH^±−]eq and [ZH2^±]eq represent the respective equilibrium concentrations of the first and second protonated species whereas [Z]o describes the initial concentration of repeating units.
For the determination of the second step protonation constant (log K2) of —P(═O)(OH)O^− (i.e. [ZH^±−]) using the titration of polymer 6 [ZH2^±] with NaOH, [Z]o and [ZH2^±]eq are related by [ZH2^±]eq=[Z]o−COH^−−[H^+]+[OH^−], where COH^− represent the added NaOH concentration. The equilibrium [H^+] and [OH^−] values were calculated from the pH value (W. K. Felty, J. Chem. Educ. 1978, 55, 576; R. Barbucci, et al., Macromolecules 1981, 14, 1203-1209—each incorporated herein by reference in its entirety). The first step protonation constant (log K1) involving the protonation of —P(═O)(O^−)2 (i.e. [Z^±=]) using volume of the titrant after deducting the equivalent volume from the total volume. In this case, α represents the ratio [ZH^±−]eq/[Z]o whereby [ZH^±−]eq equals [Z]o−COH^−−[H^+]+[OH^−]. For the titration of 11 [Z^±=] with HCl, the protonated species' concentration is given by: [ZHi=1,2]eq═CH^+−[H^+]+[OH^−].
Eq. 3 (Scheme 1) describes the apparent basicity constants of —P(═O)(O^−)2 where log K^o=pH at α=0.5 and n=1 in the case of sharp basicity constants.
The ‘n’ and log K^o as the respective slope and intercept were determined from the linear regression fit of pH vs. log [(1−α)/α)]. Protonation at the same time of the three basic sites: —PO3^=(log K1≈+8), —PO3H^− (log K2≈+3) and —SO3^−(log K3≈−2.1) (J. P. Guthrie, Can. J. Chem. 1978, 56, 2342-2354—incorporated herein by reference in its entirety) is not likely due to differences of their basicity constants by about 5 orders of magnitude (vide infra). Note that basicity constant log K of any base B is the pKa of its conjugate acid BH^+.

[3] = 0.1M NaCl, single runs (polymer runs 1, 2 in the presence of 1.5 mL of 0.1222M HCl)

Compound | solubility ([1]; acetone) | solubility ([1]; methanol) | solubility ([1]; water) | Log K1^o (first protonation), Average ([2]; 0.1M NaCl) | Log K2^o (second protonation), Average ([2]; 0.1M NaCl) | n1 (first protonation), Average ([2]; 0.1M NaCl) | n2 (second protonation), Average ([2]; 0.1M NaCl) | Log K1^o (first protonation) ([2]; 0.1M NaCl, single runs) | n1 (first protonation) ([2]; 0.1M NaCl, single runs) | Log K2^o (second protonation) [2, 3] | n2 (second protonation) [2, 3] | Log K1^o (first protonation), Average ([2]; Salt-Free water) | Log K2^o (second protonation), Average ([2]; Salt-Free water) | n1 (first protonation), Average ([2]; Salt-Free water) | n2 (second protonation), Average ([2]; Salt-Free water) | Log K1^o (first protonation) ([2]; Salt-Free water, single runs) | Log K2^o (second protonation) ([2]; Salt-Free water, single runs) | n1 (first protonation) ([2]; Salt-Free water, single runs) | n2 (second protonation) ([2]; Salt-Free water, single runs)
C=CC[N+](CC=C)(CCCP(=O)(OCC)OCC)CCCS(=O)(=O)[O-] [Monomer 4, 3-[diallyl{3-(diethoxyphosphoryl)propyl}ammonio]propane-1-sulfonate] | insoluble | soluble | soluble |  |  |  |  |  |  |  |  |  |  |  |  |  |  |  | 
C=CC[N+](CC=C)(CCCP(=O)([O-])[O-])CCCS(=O)(=O)[O-].[Na+].[Na+] [Monomer 11] |  |  |  | 7.12 (1) | 2.90 (5) | 1.03 (1) | 1.01 (4) | 7.12 and 7.11 and 7.13 | 1.03 and 1.04 | 2.91 and 2.84 and 2.94 | 0.993 and 1.06 and 0.990 | 7.53 | 2.74 (2) | 1.04 (1) | 1.02 (3) | 7.50 and 7.54 and 7.55 | 2.75 and 2.72 | 1.04 and 1.05 | 1.02 and 0.984 and 1.05
